Data published in patent publication US11813249B2, “Combination therapy for treatment of restenosis” (Mercator MedSystems, Inc., priority 2017, dated 2023).
“Also recorded” adds a separate entry of the source. Values belong to the compound of their own block, whether it stands above or below them.

Tests used:
human aortic VSMCs [1] = assay: Apoptosis by Caspase 3 ELISA in drug-treated VSMCs; conditions: 12 hours; for apoptosis (Caspase 3 activation): increasing drug concentrations, with or without 50 nM dexamethasone, FIG. 17A-C
Procedure: At harvest, cells were gently lysed and a Caspase 3 ELISA was performed (Cell Signaling Technologies, Cat #7190). Absorbance readings were taken using a microtiter plate reader (Tecan). […] Data represent the average of 9 replicate wells per condition and error bars represent the standard deviation of the 9 replicates. Baseline levels of VSMC apoptosis were obtained using vehicle controls and values were set to zero. The percent change in apoptosis in the presence of drug was determined from baseline (FIG. 17A-C).
Cells were then incubated for 12 hours. At harvest, plates were centrifuged at 800 rpm in a clinical centrifuge, and supernatant was carefully removed. Cells were then fixed and permeabilized and assayed for cytoplasmic caspase 3 levels by ELISA, according to manufacturer instructions (Cell Signaling Technologies). Absorbance readings were taken using a microtiter plate reader (Tecan). Data represent the average absorbance readings. Error bars represent the standard deviation amongst replicates.

in vivo = assay: in vivo
Description: Overview: The purpose of this study was to evaluate the safety and pharmokinetic profile of Torisel® and dexamethasone when delivered in an exaggerated dose to peripheral vasculature in a porcine model of balloon overstretch artery stenosis.
Methods: Four juvenile porcine subjects were used on this study to assess tissue safety and pharmacokinetic profile. The animals received femoral artery injury induced via oversizing a balloon (˜20-30% overstretch). Three animals received subsequent treatment with the Bullfrog® catheter of Torisel® (2 mg/mL) with dexamethasone (6 mg/mL) and contrast medium (20%) into the adventitia and perivascular tissue around the peripheral arteries. The fourth animal received subsequent treatment with the Bullfrog® catheter of saline and contrast medium (20%) into the adventitia and perivascular tissue around the peripheral arteries. Blood samples were taken at baseline, and post-implant 20 minutes, 1 hour, 4 hours, 24 hours, 3 days, 7 days, and just prior to termination for pharmacokinetic assessment. […] The other three animals were survived for 14 days. At day 14, blood was collected, animals were euthanized and a necropsy was performed.

human aortic VSMCs [2] = conditions: 12 hours; for LDH release (necrosis and cytolysis): increasing drug concentrations, with or without 50 nM dexamethasone, FIG. 18A-C; for necrotic cytotoxicity (LDH): single drug or 500 nM TEM or PAC with DEX 10, 50, 500 nM, FIG. 19C
Procedure: At harvest, plates were centrifuged at 800 rpm in a clinical centrifuge, and supernatant was carefully removed and assayed for lysed cells by measuring the LDH released into the culture media by ELISA, according to manufacturer instructions. Absorbance readings were taken using a microtiter plate reader (Tecan). […] Data in FIG. 18A represent the LDH release in the presence of increasing concentrations of sirolimus or sirolimus+50 nM dexamethasone. […] Data represent the average of 9 replicate wells per condition and error bars represent the standard deviation of the 9 replicates.
Treated cells were then incubated for 12 hours. At harvest, plates were centrifuged at 800 rpm in a clinical centrifuge, and supernatant was carefully removed and assayed for LDH by ELISA according to manufacturer instructions. Absorbance readings were taken using a microtiter plate reader (Tecan). Data represent the average absorbance readings. Error bars represent the standard deviation amongst replicates.

human aortic VSMCs [3] = assay: MTT metabolic activity / proliferation of PDGF-stimulated VSMCs; assay type: cell-based; conditions: PDGF 10 ng/mL; for inhibitory activity in the MTT assay: Example 11, 1 nM to 100 μM for 12 hours; for inhibition of metabolic activity and proliferation (MTT assay): drug 0, 1, 10, 100, 500 nM, with or without 50 nM dexamethasone, FIGS. 14A-C
Procedure: Drug-specific effects on cellular metabolic activity, pro-inflammatory cytokine production and cytotoxicity were examined. As a cytotoxic control for disruption of metabolic activity, we used actinomycin D (100 ng/mL or […]). As a negative control, vehicle (5% (v/v) sterile DMSO in saline) was used. Following an 8 hour incubation in the presence of drug and stim (PDGF), MTT substrate was added and incubated for an additional 4 hrs prior to measurement. […] Data represent the average absorbance readings.
After 8 h incubation, MTT substrate was added and incubated for an additional 4 hrs prior to measurement (T=12 hours). […] Data represent the average absorbance readings. […] FIG. 19A presents the percent of inhibition that was identified in the presence of single or combination drugs. Low doses of all drugs, administered individually, had minimal inhibitory properties, as compared to high dose of each drug.
(§1) A study was performed to assess the ability of a range of drug or drug combinations to induce cytotoxicity in PDGF-stimulated aortic smooth muscle and endothelial cells in vitro. […] Utilizing protocols for EC and VSMC stimulation mediated by the growth factor, PDGF, cells were incubated in drug at concentration ranges from 0, 1, 10, 100 nM, 1, 10, 100 μM for 12 hours prior to assessment for cellular activation and cytotoxicity. Prior to harvest, BrdU was added to each well for 6 hours for DNA incorporation. […] Data represent the average absorbance readings. […] Cellular activation was monitored by metabolic activity and cellular proliferation. Metabolic activity was measured using the MTT assay to monitor enzyme-dependent metabolite production while proliferation was measured using 5-bromo-2′-deoxyuridine (BrdU) ELISA to monitor DNA synthesis.

human aortic VSMCs [4] = assay: BrdU ELISA proliferation of PDGF-stimulated VSMCs; assay type: cell-based; conditions: Example 11; 1 nM to 100 μM for 12 hours; PDGF 10 ng/mL; compared to vehicle control and actinomycin D; FIG. 20
Procedure: as §1

[5] = system: TNFα production of human aortic VSMCs; assay: TNFα ELISA of supernatant of PDGF-stimulated VSMCs; assay type: cell-based; conditions: for PDGF-induced TNFα levels: 48 h, single drug 0, 10, 50, 500 nM, or 500 nM TEM or PAC with DEX 10, 50, 500 nM, FIG. 19E
Procedure: (§2) Following a 48 hour incubation in the presence of drug and stimulant (PDGF), 50 uL of supernatant from each well was collected and ELISAs were performed to measure TNFα levels. Pro-inflammatory cytokine expression was examined under these conditions by measuring TNFα levels in cell supernatant after 48 h by enzyme-linked immunoassay (ELISA; Peprotech #900-T16, #900-T25).

[6] = system: IL6 cytokine production of human aortic VSMCs; assay: IL6 ELISA of supernatant of PDGF-stimulated VSMCs; assay type: cell-based; conditions: for PDGF-induced IL6 levels: 48 h, single drug 0, 10, 50, 500 nM, or 500 nM TEM or PAC with DEX 10, 50, 500 nM, FIG. 19D
Procedure: as §2, with “IL6” for “TNFα”

[7] = Example 13 porcine study: blood and tissue pharmacokinetics
Procedure: (§3) Methods. Twelve animals were evaluated for tissue safety and pharmacokinetic blood and tissue profiles. The animals received vessel injury induced via oversizing a balloon at ˜20-30% overstretch, then receiving subsequent Bullfrog® catheter delivery of 4 mg/mL Torisel® or saline placebo control into the adventitia and perivascular tissue around the coronary and femoral arteries. Blood samples for pharmacokinetic analysis were taken at 5 minutes, 30 minutes, 1 hour, 24 hours, 72 hours, 7 Days, 28 Days, and termination. Animals were terminated at 90 days. Gross examination of all treated tissues and surrounding structures was performed. […] Histological analysis was performed on all other collected arterial tissues.

[8] = design: species or system swine; conditions: pig, in vivo
Procedure: The study design included a total of eleven (11) animals; 8 of which received angioplasty overstretch followed by single dose of test article in bilateral superficial femoral arteries administered for a total in-life phase of 1 hour (n=2), 3 days (n=2), 7 days (n=2) and 28 days (n=2) and three additional animals that served as control by undergoing angioplasty overstretch followed by infusion of saline and surviving for 3 days (n=1), 7 days (n=1) and 28 days (n=1). A carotid artery access was utilized for all interventional procedures. […] Animals survived to 1 hour (n=2), 3 days (n=2), 7 days (n=2) and 28 days (n=2), for detailed histopathology and safety evaluation. Following survival to the designated endpoint, animals underwent blood collection, then were euthanized and necropsied followed by histological examination.
A prospective study of a single dose (357 μg in 1.5 ml) of adventitially delivered study drug (Torisel®) was conducted. All doses contained 50% contrast medium for distribution tracking. Each pig received bilateral injections in the mid femoral region. 2 pigs each were sacrificed at 1 hour, 3 days, 7 days and 28 days, for a total of 8 pigs. […] 3 pigs were used as control in which treatment sites were subjected to overstretch injury followed by infusion of saline via the Mercator Bullfrog® catheter and sacrificed at 3 days, 7 days or 28 days (1 pig at each time point). […]

[9] = dosage of 4 mg/mL temsirolimus
Procedure: as §3

external iliac arteries = assay: Example 15 WHHL rabbit model of balloon overstretch artery stenosis: histopathology; assay type: in vivo, Watanabe heritable hyperlipidemic (WHHL) rabbit; conditions: relative to dexamethasone alone or vehicle group
Procedure: Overview. A rabbit study was performed to evaluate the tissue effect of Torisel® (Tem) and dexamethasone (Dex) when delivered as combined or alone to peripheral vasculature in a Watanabe heritable hyperlipidemic (WHHL) rabbit model of balloon overstretch artery stenosis. Each animal was subject to balloon angioplasty and treatment in each of the two (2) external iliac arteries. Four subjects were assigned to each of three groups: Torisel®, dexamethasone, or combination. Three subjects were assigned to each of two groups: control (vehicle delivery) or balloon only. Two New Zealand white rabbits were assigned to treatment with balloon only in one iliac and were naïve to any treatment in the other iliac.
Methods. Twenty animals were evaluated for tissue effect of peri-vascular injection of test and control articles. […] The animals received vessel injury induced via oversizing a balloon (˜20-30% overstretch). Animals were divided into the six groups with varying balloon injury targets and various combinations of test and control articles. The test and control articles were injected into the peri-vascular tissue using the Bullfrog® catheter. Animals were recovered and survived for ˜28 days. At ˜28 days, animals were sacrificed, a gross pathology performed and tissue harvested for histopathology analysis.

SMILES: C[C@@H]1C[C@H]2[C@@H]3CCC4=CC(=O)C=C[C@]4(C)[C@@]3(F)[C@@H](O)C[C@]2(C)[C@@]1(O)C(=O)CO [dexamethasone]
- apoptosis (Caspase 3 activation) (human aortic VSMCs [1]): did not induce significant apoptosis
- dexamethasone levels in plasma at the 24-hour time point and after (in vivo; pig, in vivo): below LLOQ
- tissue levels at 14 days (in vivo; pig, in vivo): below LLOQ
- LDH release (necrosis and cytolysis) (human aortic VSMCs [2]): suppressed LDH release compared to vehicle
- necrotic cytotoxicity (LDH) (human aortic VSMCs [2]): not observed

SMILES: CC(=O)O[C@H]1C(=O)[C@@]2(C)[C@H]([C@H](OC(=O)c3ccccc3)[C@]3(O)C[C@H](OC(=O)[C@H](O)[C@@H](NC(=O)c4ccccc4)c4ccccc4)C(C)=C1C3(C)C)[C@]1(OC(C)=O)CO[C@@H]1C[C@@H]2O [paclitaxel]
- inhibitory activity in the MTT assay (human aortic VSMCs [3]): at higher concentrations had inhibitory activity
- inhibition of metabolic activity and proliferation (MTT assay) (human aortic VSMCs [3]): at higher concentrations had inhibitory activity
- inhibition of BrdU incorporation (cellular proliferation) (human aortic VSMCs [4]): approached the degree of inhibition of actinomycin D
- average increase in apoptosis from vehicle baseline (human aortic VSMCs [1]; Caspase 3 ELISA, vehicle baseline set to zero): ≤ 173%
- apoptosis (Caspase 3 activation) (human aortic VSMCs [1]): induced in a dose-dependent manner
- apoptosis (cytoplasmic caspase 3) compared to vehicle control (human aortic VSMCs [1]; single drug or 500 nM TEM or PAC with DEX 10, 50, 500 nM, FIG. 19B): promote apoptosis (lack of inhibition)
- PDGF-induced TNFα levels [5]: dose-dependent upregulation
- TNFα production ([5]; 48 hour incubation, increasing drug concentrations, with or without 50 nM dexamethasone, FIGS. 15A-C): activated pro-inflammatory cytokine expression; also recorded: induced IL6 and TNFα production by SMCs at all doses tested; also recorded: increased steadily
- LDH release (necrosis and cytolysis) (human aortic VSMCs [2]): dose-dependent relationship
- necrotic cytotoxicity (LDH) (human aortic VSMCs [2]): demonstrated necrotic cytotoxicity
- PDGF-induced IL6 levels [6]: dose-dependent upregulation
- IL6 production ([6]; 48 hour incubation, increasing drug concentrations, with or without 50 nM dexamethasone, FIGS. 16A-C): induced IL6 and TNFα production by SMCs at all doses tested; also recorded: no significant change in IL6 levels between 50 and 500 nM

- relation of observed blood concentrations to dose ([7]; 52 mg versus 5.2 mg Torisel): proportional to dose
- homogenized vascular tissue levels ([7]; termination at 90 days): all below LLOQ
- whole blood levels at 28 days and at termination ([7]; termination at 90 days): below LLOQ
SMILES: CO[C@H]1C[C@@H]2CC[C@@H](C)[C@@](O)(O2)C(=O)C(=O)N2CCCC[C@H]2C(=O)O[C@H]([C@H](C)C[C@@H]2CC[C@@H](O)[C@H](OC)C2)CC(=O)[C@H](C)/C=C(\C)[C@@H](O)[C@@H](OC)C(=O)[C@H](C)C[C@H](C)/C=C/C=C/C=C/1C [sirolimus]
- whole blood levels, time course ([7]; up to 52 mg or 5.2 mg Torisel, perivascular, coronary and peripheral arteries): peaked at early time points, declined over time to Day 7

SMILES: CO[C@H]1C[C@@H]2CC[C@@H](C)[C@@](O)(O2)C(=O)C(=O)N2CCCC[C@H]2C(=O)O[C@H]([C@H](C)C[C@@H]2CC[C@@H](OC(=O)C(C)(CO)CO)[C@H](OC)C2)CC(=O)[C@H](C)/C=C(\C)[C@@H](O)[C@@H](OC)C(=O)[C@H](C)C[C@H](C)/C=C/C=C/C=C/1C [temsirolimus]
- inhibitory activity in the MTT assay (human aortic VSMCs [3]): at higher concentrations had inhibitory activity
- inhibition of metabolic activity and proliferation (MTT assay) (human aortic VSMCs [3]): at higher concentrations had inhibitory activity
- inhibition of BrdU incorporation (cellular proliferation) (human aortic VSMCs [4]): approached the degree of inhibition of actinomycin D
- time post-dosing up to which drug was measured in the local vascular tissue [8]: up to 28 days
- relation of observed blood concentrations to dose ([7]; pig, in vivo): proportional to dose
- whole blood levels at 28 days and at termination ([7]; pig, in vivo): below LLOQ
- PDGF-induced TNFα levels [5]: dose-dependent reduction
- mineralization in tissues [9]: not previously seen
- temsirolimus levels in the blood, time course (in vivo; Torisel 2 mg/mL with dexamethasone 6 mg/mL, perivascular, peripheral arteries): peaked at early time points, declined over time to 7 days
- temsirolimus levels in the blood at termination (in vivo; day 14): below the lower limit of quantitation (LLOQ)
- level in homogenized vascular tissue at term (in vivo; day 14, one value per test animal): 97.5 ng/g
- level in vascular tissue at term, molar equivalent (in vivo; day 14, printed as equivalent): 94.7 nM
- concentration at 14 days (in vivo; pig, in vivo, level in homogenized vascular tissue at term, day 14, one value per test animal): 50.3 ng/g
- concentration at 14 days (in vivo; pig, in vivo, level in vascular tissue at term, molar equivalent, day 14, printed as equivalent): 48.8 nM
- PDGF-induced IL6 levels [6]: dose-dependent reduction
- % HHF-35 positive intimal/medial area (marker of vascular smooth muscle cell viability) (external iliac arteries): smaller
